Test: Investigation of solubility of sparingly water-soluble components in Solutions 1 to 9 (0.1 g additions until turbidity)
Settings: 25° C.
Experimental: In addition, confirmation that turbidity or precipitation had not occurred was carried out by adding 0.1 g of the sparingly water-soluble component at a time, stirring for 10 minutes at 25° C. and then leaving to stand. […] Moreover, further tests were not carried out in cases where the solubility exceeded 5 [g/100 g solution].

solubility (Comparative Example 1, Solution 1 (water 100 g)): 0.2 g/100 g solution | solubility (Comparative Example 2, Solution 4 (water 90 g, ethanol 10 g)): 0.3 g/100 g solution | solubility (Comparative Example 3, Solution 5 (water 90 g, propylene glycol 10 g)): 0.3 g/100 g solution | solubility (Comparative Example 4, Solution 6 (water 90 g, dipropylene glycol 10 g)): 0.3 g/100 g solution | solubility (Comparative Example 5, Solution 7 (water 90 g, butylene glycol 10 g)): 0.2 g/100 g solution | solubility (Comparative Example 6, Solution 8 (water 90 g, glycerin 10 g)): 0.2 g/100 g solution | solubility (Example 1, Solution 2 (water 90 g, Compound (1)-1 10 g)): 1.5 g/100 g solution | solubility (Example 2, Solution 3 (water 90 g, Compound (1)-2 10 g)): 2.3 g/100 g solution | solubility (Example 3, Solution 9 (water 80 g, Compound (1)-2 10 g, butylene glycol 10 g)): >5 g/100 g solution
SMILES: CCCCC(CC)COCC(O)CO (stereo not drawn) [2-ethylhexyl glyceryl ether]
